# According to the supplement of paper PMC11061612:
# How the values were obtained:
# Selumetinib = compound: Cn1cnc2c(F)c(Nc3ccc(Br)cc3Cl)c(C(=O)NOCCO)cc21 [Selumetinib]; settings: max 10 µM
# How it was run: (§1)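 After 24 hours at 37°C and 5% CO2 in 1536-well plates holding 7.5 μl of DMEM/F12 or RPMI with 10% FBS, cancer cell lines were dosed for 72 hours, with final DMSO typically 0.2%. Viability came from CellTiter-Glo 2.0 luminescence, scaled between the means of blank wells and DMSO wells. A non-linear mixed effects model fitted a two-parameter logistic curve to each dose response to give the single-agent IC50.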
# Savolitinib = compound: C[C@@H](c1ccc2nccn2c1)n1nnc2ncc(-c3cnn(C)c3)nc21 [Savolitinib]; settings: max 1 µM
# How it was run: as §1
# Crizotinib = compound: C[C@@H](Oc1cc(-c2cnn(C3CCNCC3)c2)cnc1N)c1c(Cl)ccc(F)c1Cl [Crizotinib]; settings: max 10 µM
# How it was run: as §1
# Taselisib = compound: Cc1nc(-c2cn3c(n2)-c2ccc(-c4cnn(C(C)(C)C(N)=O)c4)cc2OCC3)n(C(C)C)n1 [Taselisib]; settings: max 10 µM
# How it was run: as §1
# Dasatinib = compound: CC1=C(C(=CC=C1)Cl)NC(=O)C2=CN=C(S2)NC3=CC(=NC(=N3)C)N4CCN(CC4)CCO [Dasatinib]; settings: max 2 µM
# How it was run: as §1
# SG3199 = compound: CC1=CN2[C@@H](C1)C=NC3=CC(=C(C=C3C2=O)OC)OCCCCCOC4=C(C=C5C(=C4)N=C[C@@H]6CC(=CN6C5=O)C)OC [SG3199]; settings: max 0.001 µM
# How it was run: as §1
# SRA737 = compound: N#Cc1cnc(Nc2cc(NC[C@H]3CNCCO3)c(C(F)(F)F)cn2)cn1 [SRA737]; settings: max 10 µM
# How it was run: as §1
# Olaparib = compound: O=C(c1cc(Cc2n[nH]c(=O)c3ccccc23)ccc1F)N1CCN(C(=O)C2CC2)CC1 [Olaparib]; settings: max 10 µM
# How it was run: as §1
# 5-Fluorouracil = compound: O=c1[nH]cc(F)c(=O)[nH]1 [5-Fluorouracil]; settings: max 20 µM
# How it was run: as §1
# Prexasertib = compound: COc1cccc(OCCCN)c1-c1cc(Nc2cnc(C#N)cn2)n[nH]1 [Prexasertib]; settings: max 1 µM
# How it was run: as §1
# AZD5363 = compound: C1CN(CCC1(C(=O)N[C@@H](CCO)C2=CC=C(C=C2)Cl)N)C3=NC=NC4=C3C=CN4 [AZD5363]; settings: max 10 µM
# How it was run: as §1
# AZD2811 = compound: CCN(CCO)CCCOc1ccc2c(Nc3cc(CC(=O)Nc4cccc(F)c4)[nH]n3)ncnc2c1 [AZD2811]; settings: max 1 µM
# How it was run: as §1
# Etoposide = compound: COc1cc([C@@H]2c3cc4c(cc3[C@@H](O[C@@H]3O[C@@H]5CO[C@@H](C)O[C@H]5[C@H](O)[C@H]3O)[C@H]3COC(=O)[C@H]23)OCO4)cc(OC)c1O [Etoposide]; settings: max 10 µM
# How it was run: as §1
# Palbociclib = compound: CC(=O)c1c(C)c2cnc(Nc3ccc(N4CCNCC4)cn3)nc2n(C2CCCC2)c1=O [Palbociclib]; settings: max 10 µM
# How it was run: as §1
# Trametinib = compound: CC(=O)Nc1cccc(-n2c(=O)n(C3CC3)c(=O)c3c(Nc4ccc(I)cc4F)n(C)c(=O)c(C)c32)c1 [Trametinib]; settings: max 1 µM
# How it was run: as §1
# Doxorubicin = compound: COc1cccc2c1C(=O)c1c(O)c3c(c(O)c1C2=O)C[C@@](O)(C(=O)CO)C[C@@H]3O[C@H]1C[C@H](N)[C@H](O)[C@H](C)O1 [Doxorubicin]; settings: max 1 µM
# How it was run: as §1
# MK-2206 = compound: NC1(c2ccc(-c3nc4ccn5c(=O)[nH]nc5c4cc3-c3ccccc3)cc2)CCC1 [MK-2206]; settings: max 10 µM
# How it was run: as §1
# AZD6738 = compound: C[C@@H]1COCCN1C2=NC(=NC(=C2)C3(CC3)[S@](=N)(=O)C)C4=C5C=CNC5=NC=C4 [AZD6738]; settings: max 10 µM
# How it was run: as §1
# Gefitinib = compound: COc1cc2ncnc(Nc3ccc(F)c(Cl)c3)c2cc1OCCCN1CCOCC1 [Gefitinib]; settings: max 10 µM
# How it was run: as §1
# Alisertib = compound: COc1cc(Nc2ncc3c(n2)-c2ccc(Cl)cc2C(c2c(F)cccc2OC)=NC3)ccc1C(=O)O [Alisertib]; settings: max 10 µM
# How it was run: as §1
# AZD8186 = compound: C[C@@H](Nc1cc(F)cc(F)c1)c1cc(C(=O)N(C)C)cc2c(=O)cc(N3CCOCC3)oc12 [AZD8186]; settings: max 10 µM
# How it was run: as §1
# Lapatinib = compound: CS(=O)(=O)CCNCc1ccc(-c2ccc3ncnc(Nc4ccc(OCc5cccc(F)c5)c(Cl)c4)c3c2)o1 [Lapatinib]; settings: max 10 µM
# How it was run: as §1
# AZD5153 = compound: COc1nnc2ccc(N3CCC(c4ccc(OCCN5CCN(C)C(=O)[C@H]5C)cc4)CC3)nn12 [AZD5153]; settings: max 1 µM
# How it was run: as §1
# AZD1775 = compound: C=CCn1c(=O)c2cnc(Nc3ccc(N4CCN(C)CC4)cc3)nc2n1-c1cccc(C(C)(C)O)n1 [AZD1775]; settings: max 3 µM
# How it was run: as §1
# Carboplatin = compound: C1CC(C1)(C(=O)[O-])C(=O)[O-].N.N.[Pt+2] [Carboplatin]; settings: max 10 µM
# How it was run: as §1
# AZD0156 = compound: CN(C)CCCOc1ccc(-c2ccc3ncc4c(c3c2)n(C2CCOCC2)c(=O)n4C)cn1 [AZD0156]; settings: max 3 µM
# How it was run: as §1
# AZD7648 = compound: Cc1cc2ncnn2cc1Nc1ncc2c(n1)n(C1CCOCC1)c(=O)n2C [AZD7648]; settings: max 10 µM
# How it was run: as §1
# AZD5991 = compound: Cc1c2c(nn1C)CSCc1cc(n(C)n1)CSc1cc(c3ccccc3c1)OCCCc1c(C(=O)O)n(C)c3c-2c(Cl)ccc13 [AZD5991]; settings: max 1 µM
# How it was run: as §1
# AZD4320 = compound: CN(CC[C@H](CSC1=CC=CC=C1)NC2=C(C=C(C=C2)S(=O)(=O)NC(=O)C3=CC=C(C=C3)N4CCC(CC4)[C@H](C5=CC=CC=C5C6=CC=C(C=C6)Cl)O)S(=O)(=O)C(F)(F)F)CCO [AZD4320]; settings: max 1 µM
# How it was run: as §1
# Gemcitabine = compound: Nc1ccn([C@@H]2O[C@H](CO)[C@@H](O)C2(F)F)c(=O)n1 [Gemcitabine]; settings: max 0.3 µM
# How it was run: as §1
# [1] = compound: O=C(Nc1ccc2[nH]nc(-c3ccncc3)c2c1)[C@@H]1CCN(CC(=O)N2CCN(c3ccc(-c4ncccn4)cc3)CC2)C1; settings: max 5 µM
# How it was run: as §1
# Paclitaxel = compound: CC(=O)O[C@H]1C(=O)[C@@]2(C)[C@H]([C@H](OC(=O)c3ccccc3)[C@]3(O)C[C@H](OC(=O)[C@H](O)[C@@H](NC(=O)c4ccccc4)c4ccccc4)C(C)=C1C3(C)C)[C@]1(OC(C)=O)CO[C@@H]1C[C@@H]2O [Paclitaxel]; settings: max 3 µM
# How it was run: as §1
# Venetoclax = compound: CC1(C)CCC(CN2CCN(c3ccc(C(=O)NS(=O)(=O)c4ccc(NCC5CCOCC5)c([N+](=O)[O-])c4)c(Oc4cnc5[nH]ccc5c4)c3)CC2)=C(c2ccc(Cl)cc2)C1 [Venetoclax]; settings: max 1 µM
# How it was run: as §1
# SN-38 = compound: CCc1c2c(nc3ccc(O)cc13)-c1cc3c(c(=O)n1C2)COC(=O)[C@]3(O)CC [SN-38]; settings: max 0.3 µM
# How it was run: as §1
# AZD1390 = compound: CC(C)n1c(=O)n(C)c2cnc3cc(F)c(-c4ccc(OCCCN5CCCCC5)nc4)cc3c21 [AZD1390]; settings: max 0.3 µM
# How it was run: as §1
Cell Line,"IC50, cell viability 72 h (Selumetinib) [nM]","IC50, cell viability 72 h (Savolitinib) [nM]","IC50, cell viability 72 h (Crizotinib) [nM]","IC50, cell viability 72 h (Taselisib) [nM]","IC50, cell viability 72 h (Dasatinib) [nM]","IC50, cell viability 72 h (SG3199) [nM]","IC50, cell viability 72 h (SRA737) [nM]","IC50, cell viability 72 h (Olaparib) [nM]","IC50, cell viability 72 h (5-Fluorouracil) [nM]","IC50, cell viability 72 h (Prexasertib) [nM]","IC50, cell viability 72 h (AZD5363) [nM]","IC50, cell viability 72 h (AZD2811) [nM]","IC50, cell viability 72 h (Etoposide) [nM]","IC50, cell viability 72 h (Palbociclib) [nM]","IC50, cell viability 72 h (Trametinib) [nM]","IC50, cell viability 72 h (Doxorubicin) [nM]","IC50, cell viability 72 h (MK-2206) [nM]","IC50, cell viability 72 h (AZD6738) [nM]","IC50, cell viability 72 h (Gefitinib) [nM]","IC50, cell viability 72 h (Alisertib) [nM]","IC50, cell viability 72 h (AZD8186) [nM]","IC50, cell viability 72 h (Lapatinib) [nM]","IC50, cell viability 72 h (AZD5153) [nM]","IC50, cell viability 72 h (AZD1775) [nM]","IC50, cell viability 72 h (Carboplatin) [nM]","IC50, cell viability 72 h (AZD0156) [nM]","IC50, cell viability 72 h (AZD7648) [nM]","IC50, cell viability 72 h (AZD5991) [nM]","IC50, cell viability 72 h (AZD4320) [nM]","IC50, cell viability 72 h (Gemcitabine) [nM]","IC50, cell viability 72 h [1] [nM]","IC50, cell viability 72 h (Paclitaxel) [nM]","IC50, cell viability 72 h (Venetoclax) [nM]","IC50, cell viability 72 h (SN-38) [nM]","IC50, cell viability 72 h (AZD1390) [nM]"
NB69 (Neuroblastoma),232,> 1000,2540,487,141,> 1,> 10000,> 10000,8720,89.9,> 10000,470,166,491,3.07,77.2,> 10000,3130,> 10000,238,7650,9900,37.7,444,> 10000,> 3000,> 10000,201,226,16,27.2,15,> 1000,2.16,> 300
NCI-H358 (Lung Adenocarcinoma),> 10000,> 1000,> 10000,3470,> 2000,> 1,> 10000,> 10000,> 20000,46.6,> 10000,> 1000,> 10000,> 10000,147,> 1000,> 10000,> 10000,> 10000,> 10000,> 10000,> 10000,> 1000,> 3000,> 10000,> 3000,> 10000,> 1000,> 1000,> 300,> 5000,28.1,> 1000,> 300,> 300
NCI-H727 (Other Solid Carcinomas),1120,> 1000,> 10000,2500,> 2000,> 1,> 10000,> 10000,> 20000,75.9,> 10000,> 1000,> 10000,> 10000,39.2,> 1000,> 10000,> 10000,> 10000,> 10000,> 10000,> 10000,> 1000,2600,> 10000,> 3000,> 10000,> 1000,> 1000,> 300,833,> 3000,> 1000,> 300,> 300
PANC-04-03 (Pancreatic Carcinoma),> 10000,> 1000,> 10000,7660,> 2000,> 1,> 10000,> 10000,> 20000,530,> 10000,> 1000,> 10000,> 10000,286,> 1000,> 10000,> 10000,> 10000,> 10000,> 10000,> 10000,> 1000,> 3000,> 10000,> 3000,> 10000,> 1000,> 1000,> 300,4530,2340,> 1000,> 300,> 300
RF-48 (B-Cell Non-Hodgkin's Lymphoma),> 10000,> 1000,> 10000,> 10000,> 2000,> 1,> 10000,> 10000,> 20000,132,> 10000,> 1000,> 10000,> 10000,> 1000,424,> 10000,> 10000,> 10000,> 10000,> 10000,> 10000,> 1000,1450,> 10000,> 3000,> 10000,> 1000,24.7,82.7,> 5000,19.9,> 1000,21.2,> 300
